In patent publication US7060792B2, “Protection against ischemia and reperfusion injury” (University of Kentucky Research Foundation, priority 2000, dated 2006):
Square brackets hold non-standard residues; d marks the D form. Peptide text beside a SMILES is read from it.

Test: Solubility in water or saline
Format: physicochemical
From the text: One of the compounds is a heptapeptide having the sequence Tyr-D-Met-Phe-His-Leu-Met-Asp-NH2 SEQ ID NO:1, hereinafter referred to as deltorphin A. Another of the compounds is a thirteen amino acid sequence Tyr-D-Ala-Phe-Gly-Tyr-Pro-Ser-Gly-Glu-Ala-Lys-Lys-Ile SEQ ID NO:2. The peptides may be produced by a number of methods, such as using an automated peptide synthesizer, through recombinant molecular techniques, or isolated from a naturally occurring source, as is known to one skilled in the art. Deltorphin A SEQ ID NO:1 has a molecular weight of 955.1 daltons, and Dermorphin H SEQ ID NO:2 has a molecular weight of about 1430.64 daltons. […] The initial alkaline pH is adjusted to 7.4 with 1 N HCl.

| SMILES | solubility |
| --- | --- |
| CC[C@H](C)[C@H](NC(=O)[C@H](CCCCN)NC(=O)[C@H](CCCCN)NC(=O)[C@H](C)NC(=O)[C@H](CCC(=O)O)NC(=O)CNC(=O)[C@H](CO)NC(=O)[C@@H]1CCCN1C(=O)[C@H](Cc1ccc(O)cc1)NC(=O)CNC(=O)[C@H](Cc1ccccc1)NC(=O)[C@@H](C)NC(=O)[C@@H](N)Cc1ccc(O)cc1)C(=O)O [Dermorphin H, Tyr-D-Ala-Phe-Gly-Tyr-Pro-Ser-Gly-Glu-Ala-Lys-Lys-Ile] (H-Y[dA]FGYPSGEAKKI-OH; N-terminus and C-terminus assumed) | insoluble in water or saline |
| CSCC[C@H](NC(=O)[C@H](CC(C)C)NC(=O)[C@H](Cc1cnc[nH]1)NC(=O)[C@H](Cc1ccccc1)NC(=O)[C@@H](CCSC)NC(=O)[C@@H](N)Cc1ccc(O)cc1)C(=O)N[C@@H](CC(=O)O)C(N)=O [Deltorphin A, Tyr-D-Met-Phe-His-Leu-Met-Asp-NH2] (H-Y[dM]FHLMD-NH2) | insoluble in water or saline |
